The source of these data is paper PMC5733478, “A Non-imaging High Throughput Approach to Chemical Library Screening at the Unmodified Adenosine-A3 Receptor in Living Cells” (Frontiers in Pharmacology, 2017).

The target of the experiment is T1, human A3AR (Homo sapiens, UniProt P0DMS8).
T1 construct: expressed in transfected cells
T1 sequence (P0DMS8 1-318): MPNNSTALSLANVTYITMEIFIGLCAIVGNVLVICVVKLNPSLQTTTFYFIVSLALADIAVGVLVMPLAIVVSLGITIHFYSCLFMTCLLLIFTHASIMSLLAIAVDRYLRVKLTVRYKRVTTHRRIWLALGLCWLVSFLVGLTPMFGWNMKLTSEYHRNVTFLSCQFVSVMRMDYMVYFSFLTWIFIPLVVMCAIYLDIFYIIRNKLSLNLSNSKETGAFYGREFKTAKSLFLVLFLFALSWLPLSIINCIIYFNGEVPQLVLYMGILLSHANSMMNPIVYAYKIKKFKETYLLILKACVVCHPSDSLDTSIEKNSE
Briefly: LOPAC library primary screen: single concentration (10 μM) inhibition of 25 nM CA200645 binding, PHERAstar FS.

Setting [1] is: compounds tested at 10 µM, % of control wells (1% DMSO and 25 nM CA200645), whole live cells expressing the A3AR, mean ± SD, three experiments in duplicate.
Setting [2] is: % of control wells (1% DMSO and 25 nM CA200645), compounds at 10 µM, whole live cells expressing the A3AR, mean ± SD, three experiments in duplicate.

Molecules are shown by their SMILES. Structures can show the parent of a compound that is named as a salt. Where two headings read alike, the source gives them in different places.

`N[C@@H](Cc1ccc(F)cc1)C(=O)O` [p-Fluoro-L-phenylalanine]: the “% 25 nM CA200645 binding” value stood at 98.5 ± 8.4%.
`CCCC(CCC)C(=O)O[C@H]1C[C@H]2CC[C@@H](C1)[N+]2(C)C` [Anisotropine methyl bromide]: the “% 25 nM CA200645 binding” value was 97.1 ± 12.3%.
On to `CCN1CCCC1CNC(=O)c1cc(S(=O)(=O)CC)c(N)cc1OC` (stereo not drawn) [Amisulpride], for which the “% 25 nM CA200645 binding” value is 98.0 ± 5.3%.
With `CCN(CC)CCCCCCCCOC(=O)c1cc(OC)c(OC)c(OC)c1.Cl` [TMB-8 hydrochloride], the “% 25 nM CA200645 binding” value was 95.0 ± 0.4%.
Consider `COC(=O)c1c(C)[nH]c(C)c1C(=O)c1ccccc1Cc1ccccc1` [FPL 64176], for which the “% 25 nM CA200645 binding” value came to 74.2 ± 6.7%.
For the compound `C=C[C@H]1C[N@@]2CC[C@H]1C[C@@H]2[C@@H](O)c1ccnc2ccc(OC)cc12` [Quinidine sulfate], the “% 25 nM CA200645 binding” value is reported as 111.6 ± 16.6%.
As to `CS(=O)(=O)O.Cc1c(O)cccc1C(=O)N[C@@H](CSc1ccccc1)[C@H](O)CN1C[C@H]2CCCC[C@H]2C[C@H]1C(=O)NC(C)(C)C.O` [Nelfinavir mesylate hydrate], the “% 25 nM CA200645 binding” value is on record as 77.3 ± 17.3%.
Take `C[C@]12CCC(=O)C=C1CC[C@@H]1[C@@H]2CC[C@@]2(C)[C@H]1CC[C@]2(O)C(=O)CO` [Cortexolone]: the “% 25 nM CA200645 binding” value under setting [1] came out at 110.6 ± 19.2%.
For `O=c1ccc2c(OCCCCc3ccccc3)c3ccoc3cc2o1` [Psora-4], the “% 25 nM CA200645 binding” value was determined as 66.4 ± 9.2%.
Regarding `Cl.O=C(O)Cc1c[nH]cn1` [Imidazole-4-acetic acid hydrochloride], the “% 25 nM CA200645 binding” value was determined as 99.3 ± 14.9%.
As for `CCOC(=O)N1CCC(=C2c3ccc(Cl)cc3CCc3cccnc32)CC1` [Loratadine], the “% 25 nM CA200645 binding” value amounted to 85.0 ± 1.8%.
Still for that read-out and setting: the result for `C[C@]12C=CC(=O)C=C1CC[C@@H]1C2=CC[C@]2(C)[C@@H](C(=O)CN3CCN(c4cc(N5CCCC5)nc(N5CCCC5)n4)CC3)CC[C@@H]12.O=C(O)/C=C\C(=O)O` [U-74389G maleate] reads 36.9 ± 10.8%.
On to `Oc1cc(O)cc(/C=C/c2ccc(O)c(O)c2)c1` [Piceatannol], for which the “% 25 nM CA200645 binding” value stood at 79.1 ± 22.1%.
Take `CCCCCCCCCCC/C=C\C(C)(C)/C=C\CCCC(=O)O` [7,7-Dimethyl-(5Z,8Z)-eicosadienoic acid]: the “% 25 nM CA200645 binding” value is reported as 100.3 ± 12.4%.
`COc1ccccc1OCC(O)CN1CCN(CC(=O)Nc2c(C)cccc2C)CC1` (stereo not drawn) [Ranolazine dihydrochloride]: the “% 25 nM CA200645 binding” value is 102.3 ± 13.7%.
In the case of `CCn1ccnc1CC1COc2ccccc2O1` (stereo not drawn) [Imiloxan hydrochloride], under setting [2], the “% 25 nM CA200645 binding” value stood at 97.3 ± 10.2%.
Regarding `NC(N)=NCCCCN=C(N)N` [Arcaine sulfate], under setting [1], the “% 25 nM CA200645 binding” value was 96.1 ± 6.4%.
Take `CC(C)(C)c1cc(C=C(C#N)C#N)cc(C(C)(C)C)c1O` [Tyrphostin A9]: the “% 25 nM CA200645 binding” value is listed as 93.2 ± 14.5%.
Consider `C[C@H](Cc1ccccc1)Nc1ncnc2c1ncn2[C@@H]1O[C@H](CO)[C@@H](O)[C@H]1O` [R-PIA, reference compound], for which the “hit in LOPAC primary screen (inhibited the binding of CA200645 by >40%)” value is “not identified as hits”.
As to `CCOC(=O)C1=C[C@]2(CC)CCCN3CCc4c(n1c1ccccc41)[C@@H]32` [Vinpocetine], the “% 25 nM CA200645 binding” value was found to be 97.3 ± 11.5%.
With `CC1=C(/C=C/C(C)=C/C=C/C(C)=C\C(=O)O)C(C)(C)CCC1` [13-cis-retinoic acid], the “% 25 nM CA200645 binding” value worked out at 85.2 ± 2.9%.
Still for that read-out and setting: the result for `Cc1nc(N=Nc2cc(S(=O)(=O)[O-])c3cc([N+](=O)[O-])cc(S(=O)(=O)[O-])c3c2)c(COP(=O)([O-])[O-])c(C=O)c1O.[Na+].[Na+].[Na+].[Na+]` [PPNDS tetrasodium] reads 100.4 ± 12.5%.
As for `CCCCCCCCCCCCCCCCCCN(CCCCCCCCCCCCCCCCCC)CCCN(CCO)CCO` [Avridine], the “% 25 nM CA200645 binding” value worked out at 100.2 ± 21.9%.
As to `Clc1ccc2c(N3CCN(CCCN4CCN(c5ccnc6cc(Cl)ccc56)CC4)CC3)ccnc2c1` [Piperaquine tetraphosphate tetrahydrate], the “% 25 nM CA200645 binding” value is recorded as 96.8 ± 7.2%.
Regarding `Nc1c2c(nc3ccccc13)CCCC2O.O=C(O)/C=C\C(=O)O` (stereo not drawn) [Hydroxytacrine maleate], the “% 25 nM CA200645 binding” value amounted to 108.6 ± 13.0%.
As to `Cc1cccc(-c2[nH]ncc2-c2ccc3ncccc3n2)n1` [RepSox], the “% 25 nM CA200645 binding” value stood at 98.5 ± 5.4%.
As to `CNC(=O)Oc1ccc2c(c1)[C@]1(C)CCN(C)[C@@H]1N2C` [(-)-Physostigmine], the “% 25 nM CA200645 binding” value was 99.3 ± 6.1%.
Regarding `CC(=O)OCC(=O)[C@@]1(O)CC[C@H]2[C@@H]3CCC4=CC(=O)CC[C@]4(C)[C@H]3C(=O)C[C@@]21C` [Cortisone 21-acetate], the “% 25 nM CA200645 binding” value was 92.1 ± 5.7%.
As to `S=C(Nc1ccccc1)Nc1nccs1` [1-Phenyl-3-(2-thiazolyl)-2-thiourea], the “% 25 nM CA200645 binding” value turned out to be 94.0 ± 11.6%.
With `CC(C)[N+]1(C)[C@@H]2CC[C@H]1C[C@@H](OC(=O)C(CO)c1ccccc1)C2` (stereo partly drawn) [Ipratropium bromide], the “% 25 nM CA200645 binding” value turned out to be 106.7 ± 26.2%.
For `N[C@@H]1C[C@H]1c1ccccc1` [Tranylcypromine hydrochloride], the “% 25 nM CA200645 binding” value stood at 100.1 ± 11.2%.
In the case of `NC(=O)OCC(COC(N)=O)c1ccccc1` [Felbamate], the “% 25 nM CA200645 binding” value worked out at 98.7 ± 4.1%.
Consider `NC(CCCP(=O)(O)O)C(=O)O` (racemic) [(±)-2-Amino-5-phosphonopentanoic acid], for which the “% 25 nM CA200645 binding” value under setting [1] is given as 90.8 ± 6.2%.
Turning to `CN1CCc2cccc3c2[C@H]1Cc1ccc(O)c(O)c1-3` [Apomorphine hydrochloride hemihydrate], the “% 25 nM CA200645 binding” value turned out to be 95.0 ± 6.4%.
On to `c1ccc(C(NCc2cccnc2)(c2ccccc2)c2ccccc2)cc1` [UCL 2077], for which the “% 25 nM CA200645 binding” value was 52.2 ± 5.4%.
For `CC[C@H]1OC(=O)[C@H](C)[C@@H](O[C@H]2C[C@@](C)(OC)[C@@H](O)[C@H](C)O2)[C@H](C)[C@@H](O[C@@H]2O[C@H](C)C[C@H](N(C)C)[C@H]2O)[C@](C)(O)C[C@@H](C)CN(C)[C@H](C)[C@@H](O)[C@]1(C)O` [Azithromycin dihydrate], the “% 25 nM CA200645 binding” value came out at 98.9 ± 6.9%.
On to `CCCCCCCCCCC(C)(C)C(=O)Nc1c(OC)cc(OC)cc1OC` [CI-976], for which the “% 25 nM CA200645 binding” value is recorded as 89.4 ± 17.7%.
Turning to `Nc1nc(Cl)nc2c1ncn2[C@@H]1O[C@H](CO)[C@@H](O)[C@H]1O` [2-CADO, reference compound], the “% Total CA200645 binding” value was 51.0 ± 6.7%.
Regarding `CN1CCC(=C2c3ccccc3CC(=O)c3sccc32)CC1` [Ketotifen fumarate], the “% 25 nM CA200645 binding” value is given as 93.8 ± 4.0%.
Take `O=C(O)C1CN(CCCP(=O)(O)O)CCN1` (racemic) [(±)-CPP]: the “% 25 nM CA200645 binding” value is 97.2 ± 1.5%.
As to `CC[C@@H](C(N)=O)N1CCCC1=O` [Levetiracetam], the “% 25 nM CA200645 binding” value stood at 102.2 ± 9.6%.
On the same count and under the same terms, the result for `CCCCCCCCCCCCCCCCCC(=O)OC(CC(=O)O)C[N+](C)(C)C.[Cl-]` (racemic) [DL-Stearoylcarnitine chloride] reads 44.2 ± 6.0%.
`Cc1cccc(C)c1NC(=O)CN1CCCC1=O` [Nefiracetam]: the “% 25 nM CA200645 binding” value amounted to 88.8 ± 23.8%.
`N[C@@H](Cn1ccc(=O)c(O)c1)C(=O)O` [L-Mimosine from Koa hoale seeds]: the “% 25 nM CA200645 binding” value was 106.5 ± 13.7%.
Still for that read-out and setting: the result for `CC(C)NCC(O)c1ccc(NS(C)(=O)=O)cc1.Cl` (racemic) [(±)-Sotalol hydrochloride] reads 93.5 ± 12.0%; that for `CC(C)(C)[C@]1(O)CCN2C[C@H]3c4ccccc4CCc4cccc(c43)[C@@H]2C1` [(+)-Butaclamol hydrochloride], 98.6 ± 1.9%; that for `OC(CCN1CCCCC1)(c1ccccc1)C1CCCCC1` (stereo not drawn) [Trihexyphenidyl hydrochloride], 99.4 ± 5.7%.
`CCCCCCN(CCCCCC)C(=O)Cc1c(-c2ccc(F)cc2)[nH]c2ccccc12`: the “% 25 nM CA200645 binding” value is 88.5 ± 10.2%.
Same read-out and setting: the result for `OCCN1CCN(CC/C=C2/c3ccccc3Sc3ccc(C(F)(F)F)cc32)CC1` [cis-(Z)-Flupenthixol dihydrochloride] reads 96.5 ± 4.1%.
Consider `O=[N+]([O-])c1cc2nc(O)c(O)nc2cc1[N+](=O)[O-]` [DNQX], for which the “% 25 nM CA200645 binding” value was 85.0 ± 6.8%.
Regarding `O=C(c1ccc2c(c1)OCCO2)N1CCCCC1` [CX 546], the “% 25 nM CA200645 binding” value is listed as 95.5 ± 26.6%.
Regarding `CC(=O)C(C)=NO` [2,3-Butanedione monoxime], the “% 25 nM CA200645 binding” value is listed as 109.9 ± 13.3%.
For `Cn1ccc2cc3c(cc21)CCN3C(=O)Nc1cccnc1` [SB 206553 hydrochloride], the “% 25 nM CA200645 binding” value is recorded as 60.7 ± 9.3%.
Turning to `Oc1c2ccccc2c2c3c(cccc13)N=N2` [SP600125], the “% 25 nM CA200645 binding” value is reported as 41.0 ± 10.4%.
With `O=C(O)c1cc(=O)c2ccccc2[nH]1` [Kynurenic acid], under setting [2], the “% 25 nM CA200645 binding” value is listed as 83.5 ± 10.7%.
In the case of `Oc1ccc2c3c1O[C@H]1c4oc5ccccc5c4C[C@@]4(O)[C@@H](C2)N(CC2CC2)CC[C@]314` [Naltriben methanesulfonate], the “% 25 nM CA200645 binding” value is reported as 106.9 ± 8.0%.
The same measure, in the same setting: the result for `O=C(OCCN1CCOCC1)C1(c2ccccc2)CCCCC1` [PRE-084] reads 100.3 ± 14.3%; that for `CNCCC=C1c2ccccc2CCc2ccccc21` [Nortriptyline hydrochloride], 106.1 ± 17.3%; that for `O=C(/C=C/c1ccc(O)cc1)c1ccc(O)cc1O` [Isoliquiritigenin], 88.0 ± 9.1%.
As to `CN1CC[C@@]2(C)c3cc(OC(=O)Nc4ccccc4)ccc3N(C)[C@@H]12` [Phenserine], the “% 25 nM CA200645 binding” value was found to be 81.1 ± 29.6%.
